Earlier results on 2 compounds are cited in paper PMC12586580 (Nature Communications, 2025).

In the case of `OC[C@H]1OC(O)[C@@H](O)[C@@H](O)[C@@H]1O` (stereo partly drawn) [Man, mannose], the “affinity for Man” value with Pmt2 MIR domain and in the series on Pmt3 MIR domain was “low mM affinity” in each case. Regarding “Ccw5: yeast cell wall protein 5 (Ccw5) (ASKTSTNATSSSCATPSLKD)”, the “Pmt4 substrate property (in words)” value in the series on Pmt4 is reported as “good Pmt4 substrate”.
